US20230167479A1, “RESEARCH INTO ANTIMICROBIAL RESISTANCE BY THE FIELD FLOW FRACTIONATION TECHNIQUE” (UNIVERSITÉ DE LIMOGES, priority 2020, published 2023)
In brackets after ≈: the same amount, converted by molar mass.

Columns and labels:
Format in all cases: cell-based
[1] = system: E. coli strain ATCC 25922; experiment: SdFFF elution-profile sensitivity test, protocol of Example 2 / FIG. 4; conditions: for percentage of variation in the retention factor PΔR: sensitive strain, 4 mg/ml ampicillin vs control, significance threshold 10%
Procedure: (§1) The results of the antimicrobial resistance analysis are expected starting 18-26 hours after the sample was cultured on agar.
(§2) The field-flow fractionation device is set according to patent EP1679124. The device comprises an injection system where the sample is taken, the tubing bringing the sample from the injector to the separation channel via a first rotary joint, the separation channel contained in a centrifugation bowl, the rotation of which is ensured by an electric motor itself controlled manually or via a suitable computer device, thus allowing control of the intensity of the multigravitational field, the tubing bringing the separated species from the channel to the detector via the second rotary joint, and finally the detector.
(§3) Bacterial colonies were incubated in a Mueller-Hinton (MH) culture medium with an inoculum of 0.5 McFarland in the absence or in the presence of antibiotic, for 2 hours at 37° C. and under stirring. The liquid medium MH is the reference medium used for the reference method for determining MIC values, called the dilution method in a liquid medium.
(§4) After incubation for 2 h, the culture medium was centrifuged and then taken up in a volume of 0.5 ml of PBS.
(§5) According to the handlings shown in FIG. 5, the calculation of the percentage of variation in the retention factor or PΔR is carried out as follows: ?
(§6) Example 2: A new analysis protocol was established according to FIG. 4, consistent with the clinical implementation of conventional antibiograms, making it possible to reduce to 26 hours post-sampling/isolating the time for obtaining the test results.
(§7) Thus, such assays were carried out directly on bacterial suspensions, obtained from colonies of the E. coli strain ATCC 25922 and ATCC 35218 cultured for 16-24 hours on agar medium, and incubated for 2 hours in the presence or in the absence of antibiotic (Ampicillin, FIGS. 5A/B).

[2] = system: E. coli strain ATCC 35218; experiment: as above; conditions: for percentage of variation in the retention factor PΔR: resistant strain, 4 mg/ml ampicillin vs control, significance threshold 10%
Procedure: as §1, §2, §3, §4, §5, §6, §7

[3] = system: E. coli strain ATCC 25922; experiment: SdFFF elution-profile sensitivity test, protocol of Example 1 / FIG. 1; conditions: significance threshold 10%
Procedure: The results of the antimicrobial resistance analysis are expected starting 40 hours after the sample was cultured on agar.
as §2, §3, §4
Example 1: Results of resistance tests of the E. coli strain ATCC 25922 to various molecules, using SdFFF according to the present invention. […]

E. coli ATCC EC 25922 = experiment: minimum inhibitory concentration; conditions: Escherichia coli, ATCCEC25922; concentration said to correspond to the MIC
[4] = 4 mg/ml ampicillin, PΔR compared with 10% threshold

Row | SMILES | sensitivity/resistance of the strain to the antimicrobial [1, 4] | percentage of variation in the retention factor PΔR [1] [%] | percentage of variation in the retention factor PΔR ([1]; listed as Ampicillin) | sensitivity/resistance of the strain to the antimicrobial [2, 4] | PΔR ([2]; resistant strain incubated with 8 mg/ml ampicillin) | percentage of variation in the retention factor PΔR [2] [%] | percentage of variation in the retention factor PΔR ([2]; listed as Ampicillin) | PΔR ([3]; 0.03 µg/ml chlortetracycline vs control) [%] | MIC (E. coli ATCC EC 25922) [µg/mL] | percentage of variation in the retention factor PΔR ([3]; 3 µg/ml of kanamycin vs control) [%]
1 | CC1(C)S[C@@H]2[C@H](NC(=O)[C@H](N)c3ccccc3)C(=O)N2[C@H]1C(=O)O [ampicillin, Ampicillin] | sensitive | 12.70 | ≈ 13% | resistant | ≈ 7% | 4.50 | ≈ 5% | – | – | –
2 | CN(C)[C@@H]1C(O)=C(C(N)=O)C(=O)[C@@]2(O)C(O)=C3C(=O)c4c(O)ccc(Cl)c4[C@@](C)(O)[C@H]3C[C@@H]12 [chlortetracycline, Chlortetracycline] | – | – | – | – | – | – | – | 22 | 0.03 (≈ 0.0626 µM) | –
3 | NC[C@H]1O[C@H](O[C@H]2[C@H](O)[C@@H](O[C@H]3O[C@H](CO)[C@@H](O)[C@H](N)[C@H]3O)[C@H](N)C[C@@H]2N)[C@H](O)[C@@H](O)[C@@H]1O [kanamycin] | – | – | – | – | – | – | – | – | 3 (≈ 6.19 µM) | 11.2
